Laboratory results reported in USRE47689E1, “Compounds for treating spinal muscular atrophy” (PTC Therapeutics, Inc., priority 2011, dated 2019).
Structures can show the parent of a compound that is named as a salt.

What was measured:
[1] = system: SMN2 minigene (full length SMN2 minigene mRNA containing SMN2 exon 7); test: SMN2 minigene mRNA splicing RT-qPCR assay in cultured cells; format: cell-based, human; conditions: HEK293H cells stably transfected with SMN2-A minigene, 24 hours, 7-point concentration curve, 1.5-fold relative to vehicle-treated cells; for EC (1.5-fold): Homo sapiens, HEK293-H, read-out: EC1.5x for production of full length SMN2 mRNA
Description: The reverse transcription-quantitative PCR-based (RT-qPCR) assay is used to quantify the level of the full length SMN2 minigene mRNA containing SMN2 exon 7 in a HEK293H cell line stably transfected with said minigene and treated with a test compound.
Protocol. HEK293H cells stably transfected with the SMN2-A minigene construct described above (10,000 cells/well) are seeded in 200 μL of cell culture medium (DMEM plus 10% FBS, with 200 μg/mL hygromycin) in 96-well flat-bottom plates and the plate is immediately swirled to ensure proper dispersal of cells, forming an even monolayer of cells. Cells are allowed to attach for at least 4-6 hours. […] A solution of test compound (1 μL, 200× in DMSO) is added to each cell-containing well and the plate is incubated for 24 hours in a cell culture incubator (37° C., 5% CO2, 100% relative humidity). 2 replicates are prepared for each test compound concentration. The cells are then lysed in Cells-To-Ct lysis buffer and the lysate is stored at −80° C.
The combination of these three oligonucleotides detects only SMN1 or SMN2 minigenes (RT-qPCR) and will not detect endogenous SMN1 or SMN2 genes.
The SMN forward and reverse primers are used at final concentrations of 0.4 μM.
The SMN2-minigene GAPDH mix (15 μL total volume) is prepared by combining 7.5 μL of 2×RT-PCR buffer, 0.4 μL of 25×RT-PCR enzyme mix, 0.75 μL of 20×GAPDH primer-probe mix, 4.0075 μL of water, 2 μL of 10-fold diluted cell lysate, 0.06 μL of 100 μM SMN forward primer, 0.06 μL of 100 μM SMN reverse primer, and 0.225 μL of 100 μM SMN probe.
PCR is carried out at the following temperatures for the indicated time: Step 1: 48° C. (15 min); Step 2: 95° C. (10 min); Step 3: 95° C. (15 sec); Step 4: 60° C. (1 min); then repeat Steps 3 and 4 for a total of 40 cycles.
Each reaction mixture contains both SMN2-A minigene and GAPDH primers/probe sets (multiplex design), allowing simultaneous measurement of the levels of two transcripts.
Two SMN spliced products are generated from the SMN2 minigene. The first spliced product containing exon 7, corresponding to full length SMN2 mRNA, is called SMN2mini FL. The second one lacking exon 7 is called SMN2mini Δ7.
The amplification efficiency E is calculated from the slope of the amplification curve for SMN2mini FL and GAPDH individually. The abundances of SMN2mini FL and GAPDH are then calculated as […], where Ct is the threshold value for each amplicon. The abundance of SMN2mini FL is normalized to GAPDH abundance. The normalized SMN2mini FL abundance from test compound-treated samples is then divided by normalized SMN2mini FL abundance from vehicle-treated cells to determine the level of SMN2 FL mRNA relative to vehicle control.
An EC1.5x for production of full length SMN2 mRNA between >3 μM and ≤30 μM is indicated by one star (*), an EC1.5x between >1 μM and ≤3 μM is indicated by two stars (**), an EC1.5x between >0.3 μM and ≤1 μM is indicated by three stars (***), an EC1.5x between >0.1 μM and ≤0.3 μM is indicated by four stars (****) and an EC1.5x≤0.1 μM is indicated by five stars (*****).

[2] = system: Smn protein; test: Smn protein assay in cultured cells (SMN HTRF); format: cell-based, human; conditions: 48 hours; for EC1.5x (concentration giving 1.5-fold Smn protein increase): SMA Type 1 patient fibroblast cells (GM03813), 7-point concentration curve, SMN HTRF, concentration producing 1.5 times Smn protein vs DMSO vehicle control, read-out: EC1.5x for Smn protein expression; for maximum fold (Fold) increase of Smn protein: SMA patient fibroblast cells, 7-point concentration data, fold increase relative to vehicle control (SMN HTRF)
Description: The SMN HTRF (homogeneous time resolved fluorescence) assay is used to quantify the level of Smn protein in SMA patient fibroblast cells treated with test compounds.
Protocol. Cells are thawed and cultured in DMEM-10% FBS for 72 hours. Cells are trypsinized, counted and resuspended to a concentration of 25,000 cells/mL in DMEM-10% FBS. […] 1 μL of test compound solution is transferred to cell-containing wells and cells are incubated for 48 hours in a cell culture incubator (37° C., 5% CO2, 100% relative humidity). Triplicate samples are set up for each test compound concentration. After 48 hours, the supernatant is removed from the wells and 25 μL of the RIPA lysis buffer, containing protease inhibitors, is added to the wells and incubated with shaking at room temperature for 1 hour. 25 μL of the diluent is added and then 35 μL of the resulting lysate is transferred to a 384-well plate, where each well contains 5 μL of the antibody solution (1:100 dilution of anti-SMN d2 and anti-SMN kryptate in SMN reconstitution buffer). The plate is centrifuged for 1 minute to bring the solution to the bottom of the wells, then incubated overnight at room temperature. Fluorescence for each well of the plate at 665 nm and 620 nm is measured on an EnVision multilabel plate reader (Perkin-Elmer).
The normalized fluorescence signal is calculated for each sample, Blank and vehicle control well by dividing the signal at 665 nm by the signal at 620 nm. Normalizing the signal accounts for possible fluorescence quenching due to the matrix effect of the lysate. The ΔF value (a measurement of Smn protein abundance) for each sample well is calculated by subtracting the normalized average fluorescence for the Blank control wells from the normalized fluorescence for each sample well and then dividing this difference by the normalized average fluorescence for the Blank control wells. The resulting ΔF value for each sample well represents the Smn protein abundance from test compound-treated samples. The ΔF value for each sample well is divided by the ΔF value for the vehicle control wells to calculate the fold increase in Smn protein abundance relative to the vehicle control.
An EC1.5x for Smn protein expression between >3 μM and ≤10 μM is indicated by one star (*), an EC1.5x between >1 and ≤3 μM is indicated by two stars (**), an EC1.5x between >0.3 μM and ≤1 μM is indicated by three stars (***) and an EC1.5x≤0.3 μM is indicated by four stars (****).

| Compound | EC (1.5-fold) [1] [µM] | EC1.5x (concentration giving 1.5-fold Smn protein increase) [2] [nM] | maximum fold (Fold) increase of Smn protein [2] | EC1.5x for production of full length SMN2 mRNA [1] |
| --- | --- | --- | --- | --- |
| Cc1cn2cc(-c3cc4ccc(N5CCN(CCO)[C@@H](C)C5)cc4oc3=O)nc2c(C)n1 [Compound 888, 3-(6,8-dimethylimidazo[1,2-a]pyrazin-2-yl)-7-[(3S)-4-(2-hydroxyethyl)-3-methylpiperazin-1-yl]-2H-chromen-2-one] | < 0.1 | < 300 | ***** (fold increase >1.65) | – |
| Cc1nccc(-c2cc3ccc(N4CCN(C)CC4)cc3oc2=O)n1 [Compound 297, 7-(4-methylpiperazin-1-yl)-3-(2-methylpyrimidin-4-yl)-2H-chromen-2-one] | 3 to 30 | – | * (maximum fold increase of ≤1.2) | – |
| O=c1oc2cc(N3CCNCC3)ccc2cc1-c1cn2cc(Cl)ccc2n1 [Compound 71, 3-(6-chloroimidazo[1,2-a]pyridin-2-yl)-7-(piperazin-1-yl)-2H-chromen-2-one] | 1 to 3 | – | ** (fold increase between >1.2 and ≤1.35) | – |
| Cc1cn2cc(-c3cc4ccc(N5CCNC(C)(C)C5)cc4oc3=O)nc2c(C)n1 [Compound 736, 3-(6,8-dimethylimidazo[1,2-a]pyrazin-2-yl)-7-(3,3-dimethylpiperazin-1-yl)-2H-chromen-2-one] | < 0.1 | < 300 | ***** (fold increase >1.65) | – |
| O=c1oc2cc(N3C[C@@H]4C[C@H]3CN4)ccc2cc1-c1cn2cccnc2n1 [Compound 129, 7-[(1S,4S)-2,5-diazabicyclo[2.2.1]hept-2-yl]-3-(imidazo[1,2a]pyrimidin-2-yl)-2H-chromen-2-one hydrochloride (1:3)] | 0.3 to 1 | – | ** (fold increase between >1.2 and ≤1.35) | – |
| Cc1cc2oc(-c3cc4ccc(N5CCNCC5)cc4oc3=O)cc2c(C)n1 [Compound 831, 3-(4,6-dimethylfuro[3,2-c]pyridin-2-yl)-7-(piperazin-1-yl)-2H-chromen-2-one] | 1 to 3 | – | * (maximum fold increase of ≤1.2) | – |
| O=c1oc2cc(N3CCNCC3)ccc2cc1-c1cc(C(F)(F)F)ccn1 [Compound 76, 7-(piperazin-1-yl)-3-[4-(trifluoromethyl)pyridin-2-yl]-2H-chromen-2-one] | 1 to 3 | – | * (maximum fold increase of ≤1.2) | – |
| Cc1csc2nc(-c3cc4ccc(N5CCNCC5)cc4oc3=O)cn12.Cl.Cl.Cl [Compound 141, 3-(3-methylimidazo[2,1-b][1,3]thiazol-6-yl)-7-(piperazin-1-yl)-2H-chromen-2-one hydrochloride (1:3)] | – | – | * (maximum fold increase of ≤1.2) | ** (between >1 μM and ≤3 μM) |
| Cc1cn2cc(-c3cc4ccc(N5CCN6CCC[C@H]6C5)cc4oc3=O)cc(F)c2n1 [Compound 983, 3-(8-fluoro-2-methylimidazo[1,2-a]pyridin-6-yl)-7-[(8aS)-hexahydropyrrolo[1,2-a]pyrazin-2(1H)-yl]-2H-chromen-2-one] | < 0.1 | < 300 | ***** (fold increase >1.65) | – |
| Cc1cccn2cc(-c3cc4ccc(N5C[C@H](C)NC[C@H]5C)cc4oc3=O)nc12 [Compound 166, 7-[(2R,5S)-2,5-dimethylpiperazin-1-yl]-3-(8-methylimidazo[1,2-a]pyridin-2-yl)-2H-chromen-2-one] | 1 to 3 | – | ** (fold increase between >1.2 and ≤1.35) | – |
| CC[C@H]1CN(c2ccc3cc(-c4cn5cc(C)nc(C)c5n4)c(=O)oc3c2)CCN1 [Compound 772, 3-(6,8-dimethylimidazo[1,2-a]pyrazin-2-yl)-7-[(3S)-3-ethylpiperazin-1-yl]-2H-chromen-2-one] | < 0.1 | < 300 | ***** (fold increase >1.65) | – |
| Cl.O=c1oc2cc(N3CCNCC3)ccc2cc1-c1ccnc(C2CC2)n1 [Compound 278, 3-(2-cyclopropylpyrimidin-4-yl)-7-(piperazin-1-yl)-2H-chromen-2-one hydrochloride] | 0.3 to 1 | – | * (maximum fold increase of ≤1.2) | – |
| 7-(2,5-diazabicyclo[2.2.2]oct-2-yl)-3-(pyrazolo[1,5-a]pyridin-2-yl)-2H-chromen-2-one [Compound 191] | – | – | ** (fold increase between >1.2 and ≤1.35) | *** (between >0.3 μM and ≤1 μM) |
| CCCN1CCN(c2ccc3cc(-c4cc5ccccn5n4)c(=O)oc3c2)CC1 [Compound 195, 7-(4-propylpiperazin-1-yl)-3-(pyrazolo[1,5-a]pyridin-2-yl)-2H-chromen-2-one] | 1 to 3 | – | * (maximum fold increase of ≤1.2) | – |
| COc1ccc(-c2cc3ccc(N4CCN(C)CC4)cc3oc2=O)cc1OC [Compound 317, 3-(3,4-dimethoxyphenyl)-7-(4-methylpiperazin-1-yl)-2H-chromen-2-one] | 3 to 30 | – | * (maximum fold increase of ≤1.2) | – |
| Cc1cc2cc(-c3cc4ccc(N5CCN(C6CC6)CC5)cc4oc3=O)oc2c(C)n1 [Compound 798, 7-(4-cyclopropylpiperazin-1-yl)-3-(5,7-dimethylfuro[2,3-c]pyridin-2-yl)-2H-chromen-2-one] | 0.1 to 0.3 | 300 to 1000 | **** (fold increase between >1.5 and ≤1.65) | – |
| Cc1nc2ccc(-c3cc4ccc(C5=CCNCC5)cc4oc3=O)nn2c1C1=CCNCC1 [Cpd 845, 3-[2-methyl-3-(1,2,3,6-tetrahydropyridin-4-yl)imidazo[1,2-b]pyridazin-6-yl]-7-(1,2,3,6-tetrahydropyridin-4-yl)-2H-chromen-2-one] | – | – | * (maximum fold increase of ≤1.2) | – |
